Data taken from the CheMixHub ionic liquid set.

Assay: xn = mol fraction of the nth substance listed

Cn1cc[n+](CCCN)c1.F[B-](F)(F)F + CC#N
electrical conductivity [S/m], 101 kPa, frequency 3 MHz
Details | x1 = 0.1001 | x1 = 0.2005 | x1 = 0.3 | x1 = 0.399 | x1 = 0.4996 | x1 = 0.598 | x1 = 0.6975 | x1 = 0.7983 | x1 = 0.8987 | x1 = 1
288.15 K | 1.69 | 1.25 | 0.915 | 0.614 | 0.416 | 0.281 | 0.168 | 0.088 | 0.044 | 0.011
293.15 K | 1.94 | 1.49 | 1.103 | 0.749 | 0.519 | 0.35 | 0.211 | 0.117 | 0.062 | 0.018
298.15 K | 2.243 | 1.742 | 1.309 | 0.906 | 0.625 | 0.427 | 0.267 | 0.153 | 0.085 | 0.026
303.15 K | 2.56 | 2.036 | 1.535 | 1.08 | 0.746 | 0.515 | 0.329 | 0.195 | 0.112 | 0.04
308.15 K | 2.89 | 2.343 | 1.79 | 1.27 | 0.874 | 0.611 | 0.402 | 0.243 | 0.144 | 0.055
313.15 K | 3.24 | 2.68 | 2.06 | 1.48 | 1.021 | 0.721 | 0.487 | 0.301 | 0.182 | 0.072
318.15 K | 3.622 | 3.05 | 2.36 | 1.7 | 1.17 | 0.844 | 0.58 | 0.364 | 0.225 | 0.094
323.15 K | 4.04 | 3.46 | 2.68 | 1.938 | 1.344 | 0.982 | 0.692 | 0.437 | 0.276 | 0.124

viscosity [mPa·s], 101 kPa
Details | x1 = 0.1001 | x1 = 0.2005 | x1 = 0.3 | x1 = 0.399 | x1 = 0.4996 | x1 = 0.598 | x1 = 0.6975 | x1 = 0.7983 | x1 = 0.8987 | x1 = 1
288.15 K | 18.13 | 36 | 55.18 | 75.79 | 98.1 | 121.5 | 147 | 174.5 | 202.6 | 231.2
293.15 K | 13.81 | 27.35 | 42.52 | 58.84 | 76.44 | 95.92 | 116.8 | 139.6 | 161.9 | 185.4
298.15 K | 10.64 | 21.28 | 33.13 | 46.19 | 60.38 | 76.12 | 93.68 | 112 | 130.2 | 149.6
303.15 K | 8.386 | 16.73 | 26.24 | 36.56 | 48.34 | 61.21 | 75.42 | 90.05 | 104.8 | 121.1
308.15 K | 6.804 | 13.48 | 21.1 | 29.46 | 38.98 | 49.81 | 61.47 | 74.04 | 86.51 | 100.2
313.15 K | 5.588 | 11.04 | 17.16 | 24.04 | 32.08 | 40.8 | 50.47 | 61.67 | 71.62 | 83.06
318.15 K | 4.761 | 9.062 | 14.08 | 19.9 | 26.59 | 33.85 | 41.94 | 51.42 | 59.82 | 69.26
323.15 K | 4.016 | 7.65 | 11.81 | 16.54 | 22.05 | 28.29 | 35.74 | 43.45 | 50.53 | 58.45

C[NH+](C)C.O=S(=O)([N-]S(=O)(=O)C(F)(F)F)C(F)(F)F + O=C1CCCO1
101 kPa
Details | electrical conductivity [S/m] | viscosity [mPa·s]
298.15 K, x1 = 0.0005 | 0.043 | –
298.15 K, x1 = 0.0008 | 0.059 | –
298.15 K, x2 = 0.5239 | 1.89 | –
303.15 K, x2 = 0.8088 | – | 3.08
303.15 K, x2 = 0.8803 | – | 2.34
313.15 K, x2 = 0.672 | – | 3.62
313.15 K, x2 = 0.8803 | – | 1.86
333.15 K, x2 = 0.7428 | – | 1.87
343.15 K, x2 = 0.8803 | – | 0.98

CCCC[n+]1ccn(C)c1.O=[N+]([O-])[O-] + CCC(C)O
100 kPa
Details | viscosity [mPa·s]
293.15 K, x1 = 0.0813 | 5.4
293.15 K, x1 = 0.1595 | 7.3
298.15 K, x1 = 0.1595 | 6.1
298.15 K, x1 = 0.2402 | 8.4
298.15 K, x1 = 0.7398 | 52
298.15 K, x1 = 0.8502 | 79
303.15 K, x1 = 0.1595 | 5.3
303.15 K, x1 = 0.2402 | 7.2
303.15 K, x1 = 0.8502 | 62
308.15 K, x1 = 0.2402 | 6.3
308.15 K, x1 = 0.35 | 9.4
308.15 K, x1 = 0.9399 | 71
308.15 K, x1 = 1 | 97
313.15 K, x1 = 0.2402 | 5.5
313.15 K, x1 = 0.35 | 8.2
313.15 K, x1 = 0.9399 | 57
313.15 K, x1 = 1 | 75
318.15 K, x1 = 0.35 | 7.2
318.15 K, x1 = 0.4403 | 9.7
318.15 K, x1 = 1 | 56
323.15 K, x1 = 0.35 | 6.3
323.15 K, x1 = 0.4403 | 8.5

CCCC[n+]1ccn(C)c1.O=[N+]([O-])[O-] + O + NCCO
100 kPa
Details | viscosity [mPa·s]
303 K, x1 = 0.2218, x2 = 0.4128 | 15.07
303 K, x1 = 0.2959, x2 = 0.2542 | 17.98
308 K, x1 = 0.2218, x2 = 0.4128 | 12.54
308 K, x1 = 0.2959, x2 = 0.2542 | 14.93
313 K, x1 = 0.01284, x2 = 0.8603 | 2.342
313 K, x1 = 0.02953, x2 = 0.8245 | 2.9
313 K, x1 = 0.05213, x2 = 0.7761 | 3.701
313 K, x1 = 0.08442, x2 = 0.707 | 4.94
313 K, x1 = 0.1343, x2 = 0.6001 | 6.9
313 K, x1 = 0.2218, x2 = 0.4128 | 10.58
313 K, x1 = 0.2959, x2 = 0.2542 | 12.55
313 K, x1 = 0.4146, x2 = 0 | 17.77
318 K, x1 = 0.2218, x2 = 0.4128 | 9.05
318 K, x1 = 0.2959, x2 = 0.2542 | 10.69
323 K, x1 = 0.2218, x2 = 0.4128 | 7.81
323 K, x1 = 0.2959, x2 = 0.2542 | 9.2
